In brackets after ≈: the same amount, converted by molar mass.
Assays:
[1] = In vivo pharmacokinetics in SD rats; settings: male, rat, plasma
Experimental: Using SD rats as test animals, drug concentrations in plasma of the rats at different times after intravenous injection and intragastric administration of the compounds provided in the present application were determined by LC/MS/MS. In vivo pharmacokinetic behaviors of the compounds provided in the present application in rats were investigated to evaluate pharmacokinetic characteristics of the compounds.
There were three healthy 6-8-week-old male SD rats in each group.
Intravenous administration: A certain amount of drug was weighed, and then 10 vol % N,N-dimethylacetamide, 33 vol % triethylene glycol, and 57 vol % physiological saline were added to prepare 1 mg/mL colorless clear and transparent liquid;
Intragastric administration: A certain amount of drug was weighed, and then 0.5 wt % hydroxypropyl methylcellulose, 0.1 vol % tween 80, and 99.6 vol % physiological saline were added to prepare 1 mg/mL white suspension.
After fasting overnight, the SD rats were dosed intravenously or intragastrically.
The compounds provided in the present application were administered intravenously to the rats, then 0.2 mL of blood was collected from jugular veins respectively at 0.083, 0.25, 0.5, 1, 2, 4, 8, and 24 h after the administration, and placed in a test tube containing EDTA-K2. The test tube was then centrifuged at 4000 rpm at 4° C. for 5 min to separate plasma, and the plasma was stored at −75° C. Alternatively, the compounds provided in the present application were administered intragastrically to the rats, then 0.2 mL of blood was collected from jugular veins respectively at 0.25, 0.5, 1, 2, 4, 8, and 24 h after the administration, and placed in a test tube containing EDTA-K2. The test tube was then centrifuged at 3500 rpm at 4° C. for 10 min to separate plasma, and the plasma was stored at −75° C.
The content of the compounds to be tested in rat plasma after intravenous administration or intragastric administration at different concentrations was determined: 30 μL of rat plasma at each time after administration was taken, 200 μL (50 ng/mL) of solution of internal standard dexamethasone in acetonitrile was added, then the resulting mixture was vortex-mixed for 30 s, and centrifuged at 4700 rpm at 4° C. for 15 min, the supernatant of plasma samples was diluted three times with water, and 2.0 μL of diluted solution was taken for LC-MS/MS.

[2] = Solubility (PBS pH 7.4) of compounds from DMSO solution; format: physicochemical; settings: aqueous buffer, kinetic from dmso stock, 10 mM DMSO solution into PBS pH 7.4, 25° C., read-out: Calculated solubility
Experimental: The solubility (PBS pH 7.4) of a compound to be tested was determined by LC/MS/MS. 6 μL of 10 mM DMSO solution of the compound to be tested was mixed with 194 μL of DMSO to prepare 300 μM compound solution. In 490 μL of water and acetonitrile (1:1) containing an internal standard, 5 μL of the solution and 5 μL of PBS pH 7.4 solution were mixed to prepare 3 μM standard concentration solution of the sample to be tested. The dilution factor of the standard solution can be adjusted according to the strength of response signals in LC/MS.
To 485 μL of PBS pH 7.4 solution, 15 μL of 10 mM DMSO solution of the compound to be tested was added. […] After shaking, the stir bar was removed, and the sample was transferred to a filter plate and filtered using a vacuum manifold. In 490 μL of water and acetonitrile (1:1) containing an internal standard, 5 μL of filtrate and 5 μL of PBS pH 7.4 solution were mixed to prepare a solution to be tested. The dilution factor can be adjusted according to the solubility value and the strength of response signals in LC/MS.
The resulting samples were determined by LC/MS/MS. The sample solubility was calculated from peak areas of the solution of the compound to be tested and the standard concentration solution, according to the following equation:
[formula] • [Sample] is the solubility of the sample to be tested; • Area ratiosample is the ratio of the peak area of sample in the sample to be tested to the peak area of the internal standard; • INJ VOL STD is the injection volume of the standard concentration solution; • DFsample is the dilution factor of the solution of the sample to be tested; • [STD] is the concentration of the standard concentration solution; • INJ VOLsample is the injection volume of the solution of the sample to be tested; and • Area ratio STD is the ratio of the peak area of sample in the standard concentration solution to the peak area of the internal standard.

[3] = system: MDA-MB-436 cells;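 also: MDA-MB-436 proliferation over 7 days with compound, viability read as ATP luminescence (CellTiter-Glo), inhibition relative to DMSO-only wells, day 0 signal as background, GI50 from four-parameter fit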
Experimental: Assay based on CellTiter-Glo luminescent cell viability assay system.
The assay kit (CellTiter-Glo® Luminescent Cell Viability Assay) was purchased from Promega, with Cat. No. of G7573, and was stored at −30° C. after subpackage. The kit is a homogeneous assay method for assaying the number of viable cells in a culture based on quantitative determination of ATP. The kit produces a luminescence signal proportional to the amount of ATP present, and the amount of ATP is directly proportional to the number of cells in the culture.
The cultured cells were trypsinized, collected and centrifuged, then resuspended at an adjusted concentration in a culture solution (DMEM+10% FBS), and cultured overnight on a 384-well plate (400 cells/20 μl/well) in a cell incubator with 5% CO2 at 37° C. An ECHO instrument was used to added the compound and pure DMSO onto each well of the 384-well plate. The total volume of the compound and DMSO is 100 nL, and the instrument obtains gradient diluted sample concentrations through different ratios. To each well, 30 μL of culture solution was added, and after mixing by centrifugal oscillation and re-centrifugation, the cells were cultured in a cell incubator for 7 days (one column of cells was subjected to CTG assay on the day of dosing). After day 7, 25 μL of CTG assay solution was added to each well, and after mixing by centrifugal oscillation and re-centrifugation, the cells were placed at room temperature away from light for 10 min. In terms of chemiluminescence signals, an Envision plate reader (PerkinElmer, emission wavelength: 400-700 nm) was used to measure a signal in each well. The chemiluminescence value [RLU]cpd on day 7 was obtained for the treatment group, the chemiluminescence value [RLU]cell on day 7 was obtained for the non-treatment group (given DMSO only), and the chemiluminescence value [RLU]background on day 0 was obtained for the parallel non-treatment group (given DMSO only) by CTG assay on day 0. […] In the following equation, x represents the concentration of the compound in a logarithmic form; and F(x) represents an effect value (inhibition rate of proliferation at the concentration): F(x)=(A+((B−A)/(1+((C/x)^D)))). A, B, C, and D are four parameters.

[4] = target: CYP2D6 (Homo sapiens (Human), UniProt P10635); assay: CYP enzyme inhibition in pooled human liver microsomes (bufuralol hydrochloride); format: in vitro ADME
Sequence of CYP2D6 (P10635 whole entry): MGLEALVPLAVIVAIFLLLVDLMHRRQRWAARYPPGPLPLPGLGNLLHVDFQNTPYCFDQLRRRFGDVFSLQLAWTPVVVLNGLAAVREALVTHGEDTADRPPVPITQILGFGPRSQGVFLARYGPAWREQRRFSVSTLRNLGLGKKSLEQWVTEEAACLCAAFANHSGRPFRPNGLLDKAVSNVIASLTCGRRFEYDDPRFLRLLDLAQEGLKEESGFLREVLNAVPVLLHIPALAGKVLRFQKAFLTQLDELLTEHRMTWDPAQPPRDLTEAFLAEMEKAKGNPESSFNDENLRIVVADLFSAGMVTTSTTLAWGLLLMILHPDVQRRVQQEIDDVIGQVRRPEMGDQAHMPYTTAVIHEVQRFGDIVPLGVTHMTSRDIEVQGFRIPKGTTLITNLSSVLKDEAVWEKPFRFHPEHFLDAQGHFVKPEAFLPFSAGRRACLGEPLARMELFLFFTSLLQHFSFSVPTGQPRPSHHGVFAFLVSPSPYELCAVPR
Experimental: (§1) Typical substrate metabolic responses of five major human CYP subtypes (CYP1A2, CYP2C9, CYP2C19, CYP2D6, CYP3A4) were evaluated using 150-donor pooled human liver microsomes (purchased from Corning, Cat. No.: 452117). The influence of different concentrations of each compound to be tested on metabolic responses of phenacetin (CYP1A2), diclofenac sodium (CYP2C9), S-mephenytoin (CYP2C19), bufuralol hydrochloride (CYP2D6), and midazolam (CYP3A4) was determined by liquid chromatography-mass spectrometry (LC/MS/MS). […] Then 200 μL of acetonitrile solution containing 3% formic acid and 40 nM internal standard verapamil was added and centrifuged at 4000 rpm for 50 min. The mixture was cooled on ice for 20 min and centrifuged at 4000 rpm for 20 min to precipitate the protein. Then 200 μL of supernatant was analyzed by LC-MS/MS. The peak area was calculated from the chromatogram. The residual activity ratio (%) was calculated according to the following equation: Peak area ratio=metabolite peak area/internal standard peak area Residual activity ratio (%)=peak area ratio of compounds-to-be-tested group/peak area ratio of blank group The half inhibitory concentration (IC50) for CYP was calculated by Excel XLfit 5.3.1.3.

[5] = target: CYP2C19 (Homo sapiens (Human), UniProt P33261); assay: CYP enzyme inhibition in pooled human liver microsomes (S-mephenytoin); format: in vitro ADME
Sequence of CYP2C19 (P33261 whole entry): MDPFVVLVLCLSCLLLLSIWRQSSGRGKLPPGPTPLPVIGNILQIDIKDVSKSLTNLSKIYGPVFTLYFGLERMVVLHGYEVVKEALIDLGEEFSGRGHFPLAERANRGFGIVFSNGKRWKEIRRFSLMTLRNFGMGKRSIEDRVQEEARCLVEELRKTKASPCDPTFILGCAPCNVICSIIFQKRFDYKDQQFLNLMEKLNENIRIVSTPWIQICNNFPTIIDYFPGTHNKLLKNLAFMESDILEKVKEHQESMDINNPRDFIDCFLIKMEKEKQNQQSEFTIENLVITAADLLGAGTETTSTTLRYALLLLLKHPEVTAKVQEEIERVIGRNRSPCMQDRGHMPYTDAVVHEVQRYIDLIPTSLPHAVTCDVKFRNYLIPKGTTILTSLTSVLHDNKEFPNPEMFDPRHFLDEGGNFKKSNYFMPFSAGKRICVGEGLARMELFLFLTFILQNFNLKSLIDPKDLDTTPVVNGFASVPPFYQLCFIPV
Experimental: as §1

Vd ([1]; IV 1 mg/kg, read-out: Apparent volume of distribution Vss_obs): 3.2 L/kg | clearance ([1]; IV 1 mg/kg, read-out: Clearance CL_obs): 16.5 mL/min/kg | half-life ([1]; IV 1 mg/kg, read-out: Half-life period T1/2 (converted)): 3.2 h | bioavailability ([1]; PO 5 mg/kg versus IV, read-out: Bioavailability F): 96.3% | Cmax ([1]; PO 5 mg/kg, read-out: Maximum plasma concentration Cmax): 1010 ng/mL | solubility at 2 h [2]: 214 µM (≈ 118 µg/mL) | GI50 [3]: 0.0328 µM | IC50 [4]: > 30 µM | IC50 [5]: 17.1 µM
Structure (SMILES): COc1ncnc(C2CC2)c1-c1ncc2c(n1)N(Cc1ccc(-c3nc(C(F)(F)F)cn3C)cc1)CC(=O)N2C [Compound 11, 2-(4-cyclopropyl-6-methoxypyrimidin-5-yl)-5-methyl-8-(4-(1-methyl-4-(trifluoromethyl)-1H-imidazol-2-yl)benzyl)-7,8-dihydropteridin-6(5H)-one]

From US20240226107A1, “UBIQUITIN-SPECIFIC PROTEASE 1 (USP1) INHIBITOR” (SIMCERE ZAIMING PHARMACEUTICAL CO., LTD., priority 2021, published 2024)
